The subject of data set [1] is BT474-M3 breast cancer tumor cells. As to conditions: cyclophosphamide 170 mg/kg pre-dose.
Procedure: NCR/nu mice are inoculated with 15×10^6 BT474-M3 cells (into the mammary fat pad, in 50 μl media), 20×10^6 MDA-MB-453 (s.c. into the right flank of the mouse in 100 μl of media) or 10×10^6 MCF-7 HER2 cells (into the mammary fat pad, in 50 μl media). […] When tumors reached an average volume of 200-300 mm^3, mice are pre-dosed or not with cyclophosphamide (i.p. 170 mg/kg) at different time points as indicated. Mice are subsequently dosed with DiI5-labeled anthracycline-loaded anti-HER2 immunoliposome-targeted liposomal doxorubicin (3 mg/kg), DiI5-labelled liposomal doxorubicin PLD (3 mg/kg), or free doxorubicin all at (3 mg/kg). […]
Tumor, heart and the dorsal skin are collected and frozen at −80° for further HPLC doxorubicin quantification.
Tumors, hearts and dorsal skin are weighed and minced. […] Supernatants and doxorubicin standards are analyzed by HPLC (Dionex) using a C18 reverse phase column (Synergi Polar-RP 80A 250×4.60 mm 4 μm column). […] The doxorubicin peak is detected at 6.9 min using an in-line fluorescence detector excited at 485 nm, and emitting at 590 nm. The extraction efficiency of doxorubicin from tumor, heart and skin tissues is estimated using internal control tissues spiked with known amounts of doxorubicin, and sample readings are corrected to account for the extraction efficiency. […]
[2] abbreviates: 96 hours after cyclophosphamide treatment.

Procedure for BT474-M3 tumor: Slides are air-dried and mounted with ProLong® Gold with Hoechst® stain to counterstain nuclei. Cleaved caspase 3, γ-H2AX, cleaved PARP and cytokeratin stainings are performed on FFPE-sections (5 μm thick). After deparaffinization and rehydration, heat-mediated antigen retrieval is performed on a in a pre-treatment module (Thermo Scientific, Waltham, Mass.) in citrate buffer (pH 6) for 25 min at 102° C. After antigen retrieval, slides are stained on a Lab Vision Autostainer® 360 (Thermo Scientific). Endogenous peroxidase activity is blocked with Peroxidazed® 1 (10 min at RT) followed by a washing step with TBST and a protein blocking step with Background Sniper (10 min at RT). Next, slides are incubated with the primary antibodies diluted in Da Vinci Green or Signal Stain® Antibody diluent for 1 hr at room temperature (RT). After washing, slides are incubated with secondary antibodies for 30 min at RT Antibodies used are goat anti-mouse Alexa Fluor® 488 and goat anti-rabbit Alexa Fluor® 647, diluted in Da Vinci Green, for the γ-H2AX and cleaved caspase 3 antibodies, respectively; and EnVision®+ System-HRP labeled Polymer anti-rabbit (for the signal amplification of the cleaved PARP signal) containing the secondary antibody for cytokeratin (goat anti-mouse Alexa Fluor® 555) for the cleaved PARP and cytokeratin double staining. After washing, for the signal amplification of cleaved PARP, samples are incubated with TSA™ Cyanine 5 Tyramide Reagent for 10 min at RT. Slides are washed and counterstained with Hoechst followed by a wash step and mounting with ProLong® Gold. Slides are imaged on an Aperio® FL slide scanner at 20× magnification.
Images are analyzed using rulesets written in Definiens® Developer XD 2 (Definiens, Munich, Germany). Images are analyzed as full tumor or heart tissues. […]
The extent of cleaved PARP positive tumor cells is determined in cleaved PARP and cytokeratin double stained tumor sections. […]

For `O.O=P1(N(CCCl)CCCl)NCCCO1` (stereo not shown) [cyclophosphamide, 2-[bis(2-chloroethyl)amino]tetrahydro-2H-1,3,2-oxazaphosphorine 2-oxide monohydrate], the “effect of cyclophosphamide on non-target organs such as skin or heart” value in data set [1] is on record as “no effects were observed”. Further, in the data set with BT474-M3 tumor (setting [2]), the “effect on non-tumor cells” value is reported as “non-tumor cells were unaffected” and the “interstitial space vs control” value is “significantly more interstitial space than the control cell sample”. Moreover, the “tumor cell apoptosis, tumor cell density and interstitial space” value in the data set on BT474-M3 tumor (tissue harvested 48 hr-120 hr post cyclophosphamide) is “induction of tumor cell apoptosis and consequent reduction of tumor cell density and increase in interstitial space”.
